Reference: patent US11180482B2, “Anilinopyrimidines as haematopoietic progenitor kinase 1 (HPK1) inhibitors” (Ariad Pharmaceuticals, Inc., priority 2016, dated 2021)

biological target: Wild Type HPK1 (MAP4K1) Kinase (Homo sapiens (Human), UniProt Q92918); test: HPK1 Assay (Caliper EZ reader, fluorescein tagged peptide substrate); assay type: biochemical; settings: ATP 500 micromolar, kinase 6 nM, pH 7.4
Experimental: The enzymatic activity of Wild Type HPK1 (MAP4K1) Kinase was measured in the presence or absence of an inhibitor compound of the present disclosure by preparation of a reaction mixture containing a fluorescein tagged peptide (2 micromolar final concentration), ATP (Adenosine Triphosphate, 500 micromolar final concentration) and Wild Type kinase (6 nM final concentration) in a buffer system comprising 50 mM HEPES (Buffer), 3 mM MgCl2, 5% w/v Trehalose, 0.01% Brij 35 (Detergent), 0.1% Pluronic F127 (Surfactant), 0.1 mM EDTA (Ethylenediaminetetraacetic acid), 0.1 mM EGTA (ethylene glycol-bis(β-aminoethyl ether)-N,N,N′,N′-tetraacetic acid) and 1 mM DTT (Dithiothreitol) and at a pH of 7.4. The reactions were quenched by the addition of EDTA to a final concentration of 25 mM. A Caliper EZ reader was used to measure the extent of substrate to product conversion.
The peptide substrate used in the HPK1 assay was designed based on the amino acid sequence surrounding serine residue 376 of SLP76-Lymphocyte cytosolic protein 2 (a known intracellular substrate of HPK1). This sequence SSFPQSAsLPPYFSQ was modified as follows for use in Caliper assays of HPK1: the serine residues on either side of serine 376 were replaced with alanine, three lysine residues were added at the […] and a fluorescein tag (FAM) was attached to the […] to produce the sequence, FAM-FPQAAsLPPYFAKKK.

Wild Type HPK1 (MAP4K1) Kinase, sequence (Q92918 whole entry, species assumed): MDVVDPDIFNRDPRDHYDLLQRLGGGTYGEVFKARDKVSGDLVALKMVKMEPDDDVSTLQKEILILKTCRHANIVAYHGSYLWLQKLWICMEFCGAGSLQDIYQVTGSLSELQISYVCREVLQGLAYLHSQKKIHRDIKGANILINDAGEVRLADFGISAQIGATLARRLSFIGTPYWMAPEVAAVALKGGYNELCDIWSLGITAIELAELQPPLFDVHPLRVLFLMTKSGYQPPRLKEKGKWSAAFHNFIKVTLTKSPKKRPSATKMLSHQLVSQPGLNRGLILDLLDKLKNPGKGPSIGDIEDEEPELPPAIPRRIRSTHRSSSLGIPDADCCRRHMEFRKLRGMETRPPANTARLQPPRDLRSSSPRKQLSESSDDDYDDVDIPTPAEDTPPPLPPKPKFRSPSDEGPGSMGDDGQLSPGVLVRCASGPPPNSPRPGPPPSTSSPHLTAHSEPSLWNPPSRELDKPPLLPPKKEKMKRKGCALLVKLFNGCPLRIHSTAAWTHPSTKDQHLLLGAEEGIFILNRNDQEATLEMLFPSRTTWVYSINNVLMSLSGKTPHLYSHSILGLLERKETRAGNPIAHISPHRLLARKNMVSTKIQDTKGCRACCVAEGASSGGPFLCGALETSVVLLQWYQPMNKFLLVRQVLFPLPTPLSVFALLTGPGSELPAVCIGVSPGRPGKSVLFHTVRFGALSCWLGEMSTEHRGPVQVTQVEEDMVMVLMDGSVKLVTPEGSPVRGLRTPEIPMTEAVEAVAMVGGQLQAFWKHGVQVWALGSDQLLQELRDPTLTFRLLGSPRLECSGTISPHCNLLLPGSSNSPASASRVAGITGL

Q: For `COc1cc2c(cc1Nc1ncc(Cl)c(Nc3ccccc3P(C)(C)=O)n1)C(=O)NCC2` [Example I-33, 7-((5-chloro-4-((2-(dimethylphosphoryl)phenyl)amino)pyrimidin-2-yl)amino)-6-methoxy-3,4-dihydroisoquinolin-1(2H)-one], which IC50 is on record?
A: 100 to 10000 nM

Q: How did the IC50 turn out when `COc1cc2c(cc1Nc1ncc(Cl)c(Nc3ccccc3P(C)(C)=O)n1)C(=O)N(C)CCC2` [Example I-34, 8-((5-chloro-4-((2-(dimethylphosphoryl)phenyl)amino)pyrimidin-2-yl)amino)-7-methoxy-2-methyl-2,3,4,5-tetrahydro-1H-benzo[c]azepin-1-one] was run?
A: 100 to 10000 nM

Q: `COc1cc2c(cc1Nc1ncc(Cl)c(Nc3ccccc3P(C)(C)=O)n1)CN(C)CCC2` [Example I-35, (2-((5-chloro-2-((7-methoxy-2-methyl-2,3,4,5-tetrahydro-1H-benzo[c]azepin-8-yl)amino)pyrimidin-4-yl)amino)phenyl)dimethylphosphine oxide] was tested. Which IC50 did it give?
A: 100 to 10000 nM

Q: `CCOc1cc2c(cc1Nc1ncc(Cl)c(Nc3ccccc3P(C)(C)=O)n1)CN(C)CC2` [Example I-36, (2-((5-chloro-2-((6-ethoxy-2-methyl-1,2,3,4-tetrahydroisoquinolin-7-yl)amino)pyrimidin-4-yl)amino)phenyl)dimethylphosphine oxide] was tested. Which IC50 did it give?
A: 10 to 100 nM

Q: `CP(C)(=O)c1ccccc1Nc1nc(Nc2cc3c(cc2C(F)(F)F)CCNC3)ncc1Cl` [Example I-37, (2-((5-Chloro-2-((6-(trifluoromethyl)-1,2,3,4-tetrahydroisoquinolin-7-yl)amino)pyrimidin-4-yl)amino)phenyl)dimethylphosphine oxide] was tested. Which IC50 did it give?
A: 10 to 100 nM

Q: `COc1cc2c(cc1Nc1ncc(Cl)c(Nc3ccccc3P(C)(C)=O)n1)CCNC2` [Example I-38, (2-((5-chloro-2-((7-methoxy-1,2,3,4-tetrahydroisoquinolin-6-yl)amino)pyrimidin-4-yl)amino)phenyl)dimethylphosphine oxide] was tested. Which IC50 did it give?
A: < 5 nM

Q: `[2H]C1([2H])NCCc2cc(OC)c(Nc3ncc(Cl)c(Nc4ccccc4P(C)(C)=O)n3)cc21` [Example I-39, (2-((5-chloro-2-((6-methoxy-1,2,3,4-tetrahydroisoquinolin-7-yl-1,1-d2)amino)pyrimidin-4-yl)amino)phenyl)dimethyl-phosphine oxide] was tested. Which IC50 did it give?
A: < 5 nM

Q: `COc1cc2c(cc1Nc1ncc(Cl)c(Nc3ccccc3P(C)(C)=O)n1)CNCC2(C)C` [Example I-40, (2-((5-chloro-2-((6-methoxy-4,4-dimethyl-1,2,3,4-tetrahydroisoquinolin-7-yl)amino)pyrimidin-4-yl)amino)phenyl)dimethylphosphine oxide] was tested. Which IC50 did it give?
A: < 5 nM

Q: How did the IC50 turn out when `COc1cc2c(cc1Nc1ncc(Cl)c(Nc3ccccc3P(C)(C)=O)n1)CNCC2` [Example I-41, (2-((5-chloro-2-((6-methoxy-1,2,3,4-tetrahydroisoquinolin-7-yl)amino)pyrimidin-4-yl)amino)phenyl)dimethylphosphine oxide] was run?
A: < 5 nM

Q: With `COc1cc2c(cc1Nc1ncc(Cl)c(Nc3ccccc3P(C)(C)=O)n1)CN(C1COC1)CC2` [Example I-42, (2-((5-Chloro-2-((6-methoxy-2-(oxetan-3-yl)-1,2,3,4-tetrahydroisoquinolin-7-yl)amino)pyrimidin-4-yl)amino)phenyl)dimethylphosphine oxide] as the compound, how does the IC50 read?
A: 10 to 100 nM

Q: `[2H]C1([2H])c2cc(Nc3ncc(Cl)c(Nc4ccccc4P(C)(C)=O)n3)c(OC)cc2CCN1C(C)C` [Example I-43, (2-((5-chloro-2-((2-isopropyl-6-methoxy-1,2,3,4-tetrahydroiso-quinolin-7-yl-1,1-d2)amino)pyrimidin-4-yl)amino)phenyl)-dimethylphosphine oxide] was tested. Which IC50 did it give?
A: < 5 nM

Q: How did the IC50 turn out when `COc1cc2c(cc1Nc1ncc(Cl)c(Nc3ccccc3P(C)(C)=O)n1)CN(C)CC2(C)C` [Example I-44, (2-((5-chloro-2-((6-methoxy-2,4,4-trimethyl-1,2,3,4-tetrahydroisoquinolin-7-yl)amino)pyrimidin-4-yl)amino)phenyl)-dimethylphosphine oxide] was run?
A: 5 to 10 nM
